“Also recorded” adds a separate entry of the source.
How the values were obtained:
[1] = target: CYP3A4 (Homo sapiens, UniProt P08684); conditions: Tran et al. (1997); cited from earlier work
[2] = tested on: sensitive neurons extracted from rat embryo dorsal spinal ganglions; assay: in vitro model of peripheral neuropathy (cisplatin), overall neuroprotective activity; assay type: cell-based; conditions: stiripentol 1-10 μM versus NGF 5 ng/ml; cisplatin 4.5 μg/ml, 24 hours
Description: (§1) To be more precise, they studied the survival of sensitive neurons extracted from rat embryo dorsal spinal ganglions cultured in the presence of a cytotoxic agent, cisplatin, co-applied with stiripentol.
(§2) The co-culturing, for 5 days, of sensitive neurons (˜5-10% of the cultivated cell population) associated with Schwann cells and fibroblasts (˜95-90% of the cultivated cell population) is carried out in an appropriate medium as described in Hall et al. (1997) J. Neurosci. 17:2775-2784. […]
(§3) The density of the neuritic networks (axons and dendrites) labelled by an anti-β-tubulin antibody (ref T8660, Sigma, France) is then determined by measuring their length, together with the number of cell bodies marked by means of an anti-MAP2 antibody (ref M4403, Sigma, France) as indicated by Gill & Windebank (1998) J. Clin. Invest. […] Also determined is the amount of lactate dehydrogenase (LDH) (Kit de detection (detection kit), ref 1 644 793, Roche) released in the extracellular medium, the amount of which is proportional to the number of cells which are damaged or dead owing to the cisplatin-induced cell lysis, as indicated by Koh & Choi (1987) J Neurosci Methods 20:83-90.

[3] = tested on: sensitive neurons extracted from rat embryo dorsal spinal ganglions; assay: lactate dehydrogenase (LDH) released in the extracellular medium of the co-culture with or without cisplatin; assay type: cell-based; conditions: 24 hours, FIG. 3
Description: as §1, §2, §3

[4] = tested on: sensitive neurons extracted from rat embryo dorsal spinal ganglions; assay: number of cell bodies (anti-MAP2 labelling) in sensitive neuron co-culture with or without cisplatin; assay type: cell-based; conditions: 24 hours, FIG. 2
Description: as §1, §2, §3

[5] = tested on: uptake of gamma-aminobutyric acid (GABA); conditions: cited from earlier work
[6] = tested on: sensitive neurons extracted from rat embryo dorsal spinal ganglions; assay: density of neuritic networks (total neurite length, anti-β-tubulin labelling) in sensitive neuron co-culture with or without cisplatin; assay type: cell-based; conditions: 24 hours, FIG. 1
Description: as §1, §2, §3

[7] = target: CYP1A2 (Homo sapiens, UniProt P05177); conditions: Tran et al. (1997); cited from earlier work
CYP1A2, sequence (P05177 whole entry): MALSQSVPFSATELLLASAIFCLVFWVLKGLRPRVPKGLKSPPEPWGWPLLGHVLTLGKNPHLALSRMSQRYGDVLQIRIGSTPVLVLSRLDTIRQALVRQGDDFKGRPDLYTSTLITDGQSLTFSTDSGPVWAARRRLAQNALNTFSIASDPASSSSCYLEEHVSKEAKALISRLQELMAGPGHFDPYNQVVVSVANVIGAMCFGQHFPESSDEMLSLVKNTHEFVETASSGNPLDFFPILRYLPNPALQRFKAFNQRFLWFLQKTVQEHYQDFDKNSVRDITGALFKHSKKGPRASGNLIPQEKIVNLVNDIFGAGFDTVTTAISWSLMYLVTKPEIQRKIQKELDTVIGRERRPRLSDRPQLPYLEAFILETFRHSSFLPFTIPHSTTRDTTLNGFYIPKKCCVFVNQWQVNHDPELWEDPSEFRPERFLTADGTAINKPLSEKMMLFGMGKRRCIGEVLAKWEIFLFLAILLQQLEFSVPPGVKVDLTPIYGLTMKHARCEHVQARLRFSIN

[8] = in the presence of cisplatin 4.5 μg/ml, stiripentol 1, 3, 10 μM, NGF 5 ng/ml

CYP3A4, sequence (P08684 whole entry): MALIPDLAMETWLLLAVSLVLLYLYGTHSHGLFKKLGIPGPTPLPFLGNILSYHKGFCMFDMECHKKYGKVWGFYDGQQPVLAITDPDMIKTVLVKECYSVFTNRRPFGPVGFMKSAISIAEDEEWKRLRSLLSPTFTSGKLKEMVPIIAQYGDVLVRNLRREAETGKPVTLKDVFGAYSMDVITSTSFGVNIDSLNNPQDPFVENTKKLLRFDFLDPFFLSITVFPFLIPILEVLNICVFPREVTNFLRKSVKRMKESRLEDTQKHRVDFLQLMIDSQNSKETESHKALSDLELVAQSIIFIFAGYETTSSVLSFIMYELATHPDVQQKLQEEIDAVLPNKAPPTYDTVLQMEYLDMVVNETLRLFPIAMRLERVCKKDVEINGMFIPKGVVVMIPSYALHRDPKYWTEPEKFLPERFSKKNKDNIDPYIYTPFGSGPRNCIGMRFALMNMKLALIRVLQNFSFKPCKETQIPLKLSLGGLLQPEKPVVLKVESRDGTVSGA

Compound | inhibition of CYP3A4 [1] | neuroprotective activity compared with NGF [2] | cell release of LDH [3, 8] | number of neuronal cell bodies [4, 8] | inhibition of the uptake of gamma-aminobutyric acid (GABA) [5] | density of the neuritic networks (total length of the neurites) [6, 8] | inhibition of CYP1A2 [7] | effect of cisplatin on cell lysis (LDH release) ([3]; cisplatin 4.5 μg/ml alone) | effect of cisplatin on the cell bodies ([4]; cisplatin 4.5 μg/ml alone) | effect of cisplatin on the density of the neuritic networks ([6]; cisplatin 4.5 μg/ml alone)
CC(C)(C)C(O)/C=C/c1ccc2c(c1)OCO2 (stereo not shown) [stiripentol, 4,4-dimethyl-1-[(3,4-methylenedioxy)-phenyl]-1-penten-3-ol] | inhibitor | neuroprotective effect equivalent to that of NGF; also recorded: neuroprotective activity of the same order as that of NGF | neuroprotective effect | reduce the decrease | inhibits the uptake of gamma-aminobutyric acid (GABA) | reduce the decrease in the density of the neuritic networks | inhibitor |  |  | 
N.N.[Cl][Pt][Cl] [cisplatin] |  |  |  |  |  |  |  | cell lysis | degeneration of the cell bodies | reduction in the density of the neuritic networks

From patent US8927600B2, “Compound for use in the treatment of peripheral neuropathies” (Biocodex, priority 2009, dated 2015)
